Read-outs that look alike come from different tables or passages of the source.

Consider five compounds from US10906880B2, “Kind of isothiazole oxime ether-containing strobilurin derivatives and its preparation methods and application” (priority 2016, dated 2021).

Series [1] concerns Alternaria solani. As to the kind of experiment: Fungicide activity, mycelial growth inhibition on PDA plate. Type of series: cell-based. To be noted: Alternaria solani, read-out: Fungicidal activity inhibition, AS.
The test system of series [2] is TMV. As to the kind of experiment: Anti-TMV activity on tobacco, inactivation mode. To be noted: Tobacco mosaic virus, 100 μg/mL, read-out: Anti-TMV activity inhibition, Inactivation effect. It is filed as in vivo, tobacco mosaic virus.
Series [3] deals with Sclerotinia sclerotiorum. As to the kind of experiment: Fungicide activity, mycelial growth inhibition on PDA plate. It is filed as cell-based. The following applies: Sclerotinia sclerotiorum, read-out: Fungicidal activity inhibition, SS.
The subject of series [4] is Phytophthora infestans (Mont) de Bary. The series is described as follows: microbe, parasite or virus in culture. Type of series: cell-based. The following applies: for inhibition at 50 µg/mL: Phytophthora infestans, read-out: Fungicidal activity inhibition, PI, 50 μg/mL, P. infestans (Mont.) de Bary.
Series [5] deals with TMV. As to the kind of experiment: Anti-TMV activity on tobacco, protection mode. It is filed as in vivo, tobacco mosaic virus. The following applies: Tobacco mosaic virus, 100 μg/mL, read-out: Anti-TMV activity inhibition, Protection effect.
For series [6], the system named is Physalospora piricola. The series is described as follows: Fungicide activity, mycelial growth inhibition on PDA plate. Type of series: cell-based. The following applies: 50 μg/mL, P. piricola; read-out: Fungicidal activity inhibition, PP.
Series [7] relates to Gibberella zeae. The series is described as follows: microbe, parasite or virus in culture. It is filed as cell-based. The following applies: for inhibition at 50 µg/mL: Fusarium graminearum, read-out: Fungicidal activity inhibition, GZ, 50 μg/mL, G. zeae.
Series [8] deals with TMV. As to the kind of experiment: Anti-TMV activity on tobacco, induction mode (systemic acquired resistance). Type of series: in vivo, tobacco mosaic virus. The following applies: Tobacco mosaic virus, 100 μg/mL, read-out: Anti-TMV activity inhibition, Induction effect.
Series [9] concerns Cercospora arachidicola. The series is described as follows: Fungicide activity, mycelial growth inhibition on PDA plate. Type of series: cell-based. To be noted: Mycosphaerella arachidis, read-out: Fungicidal activity inhibition, CA.
Series [10] deals with Rhizoctonia cerealis. The series is described as above. The following applies: Ceratobasidium cereale, read-out: Fungicidal activity inhibition, RC. Type of series: cell-based.
The test system of series [11] is Pellicularia sasakii. The description is as above. It is filed as cell-based. To be noted: 50 μg/mL, P. sasakii; read-out: Fungicidal activity inhibition, PS.
Series [12] concerns Botrytis cinerea. The series is described as follows: Fungicide activity, mycelial growth inhibition on PDA plate. It is filed as cell-based. The following applies: Botrytis cinerea, read-out: Fungicidal activity inhibition, BC.
For series [13], the system named is TMV. The series is described as follows: Anti-TMV activity on tobacco, curative mode. Type of series: in vivo, tobacco mosaic virus. To be noted: Tobacco mosaic virus, 100 μg/mL, tobacco; read-out: Anti-TMV activity inhibition, Curative effect.

Turning to `CO/N=C(/C(=O)NC(C)(C)CSC)c1ccccc1CO/N=C(\N)c1snc(Cl)c1Cl` [CL04-25D], the melting point (in general, the temperature, or range, at which the solid turns liquid) was 28 to 30 °C. Further, the inhibition at 50 µg/mL in series [1] (50 μg/mL, A. solani) was 16.4%. Also, the inhibition at 100 µg/mL in series [2] was determined as 0%. Moreover, the inhibition at 50 µg/mL in [3] (50 μg/mL, S. sclerotiorum) is 52.9%. Also, in [3], the inhibition at 50 µg/mL is more than 40%. The inhibition at 50 µg/mL in [4] was determined as 17.1%. Also, the inhibition at 100 µg/mL in [5] turned out to be 21.1 ± 1.69%. For the same compound, the inhibition at 50 µg/mL in series [6] is 27.7%. The inhibition at 50 µg/mL in series [7] turned out to be 21.2%. Moreover, in series [8], the inhibition at 100 µg/mL amounted to 21.1 ± 3.69%. Moreover, the inhibition at 50 µg/mL in [9] (50 μg/mL, C. arachidicola) was found to be 12.5%. For the same compound, the inhibition at 50 µg/mL in series [10] (50 μg/mL, R. cerealis) is 62%. Further, in [11], the inhibition at 50 µg/mL turned out to be 15.2%. For the same compound, the inhibition at 50 µg/mL in series [12] (50 μg/mL, B. cinerea) was determined as 39.3%. Besides, in [13], the inhibition at 100 µg/mL is more than 30%.
In turn, `CNC(=O)/C(=N/OC)c1ccccc1CO/N=C(\C)c1snc(Cl)c1Cl` [CL04-22D] came in with a melting point of 79 to 81 °C. Also, in [1] (50 μg/mL, A. solani), the inhibition at 50 µg/mL worked out at 47.5%. Besides, the inhibition at 50 µg/mL in [1] is more than 30%. For the same compound, the inhibition at 100 µg/mL in series [2] stood at 4.44 ± 0.85%. Also, the inhibition at 50 µg/mL in [3] (50 μg/mL, S. sclerotiorum) amounted to 100%. The “Fungicidal activity inhibition, PI” value in series [4] (50 μg/mL, P. infestans (Mont.) de Bary) stood at 100%. For the same compound, in series [5], the inhibition at 100 µg/mL was more than 40%. Further, the inhibition at 50 µg/mL in series [6] was 80.8%. Further, the “Fungicidal activity inhibition, GZ” value in [7] (50 μg/mL, G. zeae) was 100%. The inhibition at 50 µg/mL in series [9] (50 μg/mL, C. arachidicola) is 87.5%. In addition, in series [10] (50 μg/mL, R. cerealis), the inhibition at 50 µg/mL was 100%. Also, in [11], the inhibition at 50 µg/mL was 89.2%. Moreover, the inhibition at 50 µg/mL in series [12] (50 μg/mL, B. cinerea) is 100%. In addition, in [13], the inhibition at 100 µg/mL came out at 32.8 ± 3.36%.
Turning to `CO/N=C(/C(=O)NCC(F)F)c1ccccc1CO/N=C(\N)c1snc(Cl)c1Cl` [CL04-24], the melting point was 118 to 120 °C. The inhibition at 50 µg/mL in [1] (50 μg/mL, A. solani) stood at 12.7%. Also, the inhibition at 100 µg/mL in series [2] turned out to be 27.3 ± 6.56%. The inhibition at 50 µg/mL in [3] (50 μg/mL, S. sclerotiorum) was determined as 52.9%. In addition, in [4], the inhibition at 50 µg/mL turned out to be 22.9%. Moreover, the inhibition at 100 µg/mL in series [5] was determined as 36.8 ± 5.5%. The inhibition at 50 µg/mL in series [6] stood at 39.5%. For the same compound, the inhibition at 50 µg/mL in series [7] is more than 30%. For the same compound, the inhibition at 100 µg/mL in [8] was more than 30%. In addition, in series [9] (50 μg/mL, C. arachidicola), the inhibition at 50 µg/mL is 16.7%. Moreover, the inhibition at 50 µg/mL in series [10] (50 μg/mL, R. cerealis) was 62%. Also, the inhibition at 50 µg/mL in series [10] was more than 50%. The inhibition at 50 µg/mL in series [11] was 24.2%. In series [12] (50 μg/mL, B. cinerea), the inhibition at 50 µg/mL came to 37.5%. Moreover, the inhibition at 100 µg/mL in [13] was determined as 15 ± 3.08%.
Consider `CO/N=C(/C(=O)NC(C)(C)CSC)c1ccccc1CO/N=C(C)/C=C/c1snc(Cl)c1Cl` [CL04-32E], for which the inhibition at 50 µg/mL was 5.45% in [1] (50 μg/mL, A. solani); 41.2% in [3] (50 μg/mL, S. sclerotiorum); 11.4% in series [4]; 39.5% in [6]; 24.2% in [7]; 12.5% in series [9] (50 μg/mL, C. arachidicola). The inhibition at 50 µg/mL in series [10] (50 μg/mL, R. cerealis) amounted to 58%; in series [11], 15.2%; in [12] (50 μg/mL, B. cinerea), 32.1%. In addition, the inhibition at 100 µg/mL in [2] was 13.7 ± 0.55%; in [5] it was more than 40%; in series [8], more than 70%; in [13], 1.52 ± 0.62%.
On to `CO/N=C(/C(=O)NCC(F)F)c1ccccc1CO/N=C(C)/C=C/c1snc(Cl)c1Cl` [CL04-32A], for which the melting point fell in the range of 98 to 100 °C. Further, the inhibition at 50 µg/mL in [1] (50 μg/mL, A. solani) is 34.4%. Besides, the inhibition at 50 µg/mL in series [1] is more than 30%. Also, in [2], the inhibition at 100 µg/mL is more than 30%. Besides, in series [3] (50 μg/mL, S. sclerotiorum), the inhibition at 50 µg/mL turned out to be 53.3%. Moreover, in series [3], the inhibition at 50 µg/mL was more than 40%. For the same compound, the inhibition at 100 µg/mL in series [5] was more than 40%. Moreover, the inhibition at 50 µg/mL in series [6] came to 29.8%. In addition, in series [7], the inhibition at 50 µg/mL is more than 30%. Besides, the inhibition at 100 µg/mL in series [8] is more than 30%. In addition, the inhibition at 50 µg/mL in [9] (50 μg/mL, C. arachidicola) turned out to be 36%. Further, the inhibition at 50 µg/mL in [9] is more than 30%. For the same compound, the inhibition at 50 µg/mL in series [10] (50 μg/mL, R. cerealis) amounted to 85.4%. In addition, the inhibition at 50 µg/mL in series [10] was more than 50%. In addition, the inhibition at 50 µg/mL in [11] worked out at 35.1%. For the same compound, the inhibition at 50 µg/mL in series [12] (50 μg/mL, B. cinerea) worked out at 52.6%. The inhibition at 50 µg/mL in [12] is more than 45%. Moreover, the inhibition at 100 µg/mL in series [13] worked out at 1.52 ± 0.62%.
